In ChEMBL document CHEMBL4196240, “Structurally Diverse Sesquiterpenoids from the Endangered Ornamental Plant Michelia shiluensis” (J Nat Prod, 2018):

Assays:
[1] = tested on: MCF7; experiment: Cytotoxicity against human MCF7 cells after 24 hrs by MTS assay; assay type: functional, cell-based; details: MCF7, 24 h
[2] = tested on: A549; experiment: Cytotoxicity against human A549 cells after 24 hrs by MTS assay; assay type: functional, cell-based; details: A549, 24 h
[3] = molecular target: T1, Tyrosine-protein phosphatase non-receptor type 1 (Homo sapiens, UniProt P18031); experiment: Inhibition of recombinant human GST-tagged PTP1B catalytic domain using para-nitrophenyl phosphate as substrate
T1 sequence (P18031 whole entry): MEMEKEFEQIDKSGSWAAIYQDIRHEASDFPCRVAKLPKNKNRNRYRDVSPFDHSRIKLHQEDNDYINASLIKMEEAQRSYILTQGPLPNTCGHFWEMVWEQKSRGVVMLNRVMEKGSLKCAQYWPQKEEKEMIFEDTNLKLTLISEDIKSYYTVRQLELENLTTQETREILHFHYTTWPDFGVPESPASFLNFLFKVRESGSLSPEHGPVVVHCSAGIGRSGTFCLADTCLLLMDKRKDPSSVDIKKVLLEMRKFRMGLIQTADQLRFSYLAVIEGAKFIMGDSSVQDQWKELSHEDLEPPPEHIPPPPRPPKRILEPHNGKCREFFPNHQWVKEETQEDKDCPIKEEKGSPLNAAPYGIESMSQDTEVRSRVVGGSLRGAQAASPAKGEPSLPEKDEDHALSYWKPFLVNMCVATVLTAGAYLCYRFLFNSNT

For `C=C1C(=O)O[C@H]2[C@H]1[C@H](OC(C)=O)C/C(C)=C/CC[C@@]1(C)O[C@@H]21`, the IC50 [1] was 1.5 µM and the IC50 [2] was 7.3 µM.
With `CC[C@]1(O)C(=O)O[C@H]2[C@H]1[C@H](OC(C)=O)C/C(C)=C/CC[C@@]1(C)O[C@@H]21` the IC50 [1] was 45.7 µM and the IC50 [2] was > 200 µM.
In the case of `CC(=O)CC[C@@H]1C[C@@]2(OC1(C)C)C(=O)CC[C@@]2(C)O`, the IC50 [3] is reported as 46.3 µM.
`COc1cccc2c1C(=O)c1c(O)c3c(c(O)c1C2=O)C[C@@](O)(C(=O)CO)C[C@@H]3O[C@H]1C[C@H](N)[C@H](O)[C@H](C)O1` [DOXORUBICIN] was tested, and the IC50 [2] was 0.21 µM.
